Measured values published in US11020395B2, “Cycloalkyl substituted triazole compounds as agonists of the APJ receptor” (AMGEN INC., priority 2016, dated 2021).

Each compound was assayed on heart failure rats (assay: Cardiac function with APJ small molecule agonists in the presence of ACE inhibitor captopril in heart failure rats in vivo). Settings: captopril alone, acute settings.
Parameters: species or system rat
Text: The interaction between […] (ACE2) and Apelin biology is complicated. To investigate the interaction between the Apelin-APJ and ACE signalling pathways, we examined the improvement in cardiac function with APJ small molecule agonists in the presence of ACE inhibitor captopril in heart failure rats in vivo. […] However, in the presence of an APJ agonist, there was a shift in potency to the left with marked improvement in contractility and ejection fraction without changes in heart rate. These findings provide a new reference for the understanding of the regulation of ACE2 for the renin angiotensin aldosterone system (RAAS), independent of AT1R signaling and offer new potential drug targets for the treatment of diseases such as hypertension and heart failure. This work clearly establishes that combination of an agonist of the APJ receptor with an ARB such as losartan and/or with an ACE inhibitor such as captopril which may play an important role in providing greater efficacy in treating heart failure patients, for example in improving contractility and ejection fraction without changing the heart rate.

Row | Structure (SMILES) | contractility or ejection fraction
1 | C[C@H](CS)C(=O)N1CCC[C@H]1C(=O)O [Captopril, captopril] | does not show a marked improvement

The compounds below were run against human APJ-AT1R double stable CHO cell line (Homo sapiens (Human), UniProt P35414) (assay: IP1 accumulation (TR-FRET) assay with AngII in human APJ-AT1R double stable CHO cell line). Settings: in the presence of AngII and APJ small molecule agonists.
Chain of human APJ-AT1R double stable CHO cell line (P35414 whole entry): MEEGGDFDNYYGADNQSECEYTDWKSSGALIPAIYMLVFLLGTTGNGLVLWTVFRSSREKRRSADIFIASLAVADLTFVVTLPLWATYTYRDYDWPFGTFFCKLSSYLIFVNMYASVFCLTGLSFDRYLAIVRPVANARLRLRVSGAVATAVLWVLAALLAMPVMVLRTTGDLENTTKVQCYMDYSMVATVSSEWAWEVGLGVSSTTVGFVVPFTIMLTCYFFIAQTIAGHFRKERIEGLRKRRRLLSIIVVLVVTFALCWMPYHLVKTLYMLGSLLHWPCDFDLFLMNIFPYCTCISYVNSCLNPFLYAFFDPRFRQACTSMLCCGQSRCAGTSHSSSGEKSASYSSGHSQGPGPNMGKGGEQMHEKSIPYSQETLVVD
Format: cell-based
Description: The function of the inositol phosphate accumulation (IP1) was measured by Time-resolved fluorescence resonance energy (TR-FRET) at 620 nm and 665 nm respectively.
The plate was sealed and incubated for 1 hour.

Row | Structure (SMILES) | effect on APJ agonist-induced positive cooperativity
2 | CCCCc1nc(Cl)c(CO)n1Cc1ccc(-c2ccccc2-c2nn[nH]n2)cc1 [losartan] | relieved this cooperativity

The compounds below were run against human APJ receptor (Homo sapiens (Human), UniProt P35414) (assay: [35S]GTPγS binding assay on membranes from CHO cells stably expressing human APJ receptor). Settings: [35S]GTPγS SPA, read-out: Activity hAPJ SPA EC50 IP.
Chain of human APJ receptor (P35414 whole entry): as above
Format: biochemical
How it was run: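 Agonist-stimulated [35S]GTPγS binding measured on membranes of a stable human APJ CHO line, 90 min at room temperature, with GDP, MgCl2 and NaCl levels optimized beforehand. Means of independent runs fitted by non-linear regression to give EC50.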

Row | Structure (SMILES) | EC50 [nM]
3 | COCC(COC)n1c(NS(=O)(=O)[C@@H](C)[C@H](OC)c2ncc(Cl)cn2)nnc1[C@H]1C[C@H](CO)C1 (single isomer, unassigned) [Example 130.0, (1R,2S)-1-(5-chloropyrimidin-2-yl)-N-(4-(1,3-dimethoxypropan-2-yl)-5-((1r,3S)-3-(hydroxymethyl)cyclobutyl)-4H-1,2,4-triazol-3-yl)-1-methoxypropane-2-sulfonamide or (1R,2S)-1-(5-chloropyrimidin-2-yl)-N-(4-(1,3-dimethoxypropan-2-yl)-5-((1s,3R)-3-(hydroxymethyl)cyclobutyl)-4H-1,2,4-triazol-3-yl)-1-methoxypropane-2-sulfonamide] | 1500
4 | COc1cccc(OC)c1-n1c(NS(=O)(=O)[C@@H](C)[C@@H](OC(C)C)c2ncc(C)cn2)nnc1[C@@H]1CCC[C@@H]1OC (single isomer, unassigned) [Example 235.0] | 150
5 | COc1ncnc(OC)c1-n1c(NS(=O)(=O)[C@@H](C)[C@H](OC)c2ncc(Cl)cn2)nnc1[C@H]1CC[C@H]1C(F)F (racemic) [Example 146.0] | 26
6 | COc1cccc(OC)c1-n1c(NS(=O)(=O)[C@@H](C)[C@H](C)c2ncc(Cl)cn2)nnc1C1CCC1 [Example 143.0] | 4.1
7 | COc1cccc(OC)c1-n1c(NS(=O)(=O)[C@@H](C)[C@@H](OC(C)C)c2ncc(C)cn2)nnc1[C@H]1C[C@@H](OC)C1 (racemic) [Example 227.0, (1S,2S)-N-(4-(2,6-dimethoxyphenyl)-5-(trans-3-methoxycyclobutyl)-4H-1,2,4-triazol-3-yl)-1-(5-methyl-2-pyrimidinyl)-1-(2-propanyloxy)-2-propanesulfonamide or (1S,2S)-N-(4-(2,6-dimethoxyphenyl)-5-(cis-3-methoxycyclobutyl)-4H-1,2,4-triazol-3-yl)-1-(5-methyl-2-pyrimidinyl)-1-(2-propanyloxy)-2-propanesulfonamide] | 2.7
8 | COc1cccc(OC)c1-n1c(NS(=O)(=O)[C@@H](C)[C@@H](OC(C)C)c2ncc(C)cn2)nnc1[C@H]1C2CC1[C@@H]2O [Example 228.0, (1S,2S)-N-(4-(2,6-dimethoxyphenyl)-5-(cis-4-hydroxybicyclo[1.1.1]pentan-2-yl)-4H-1,2,4-triazol-3-yl)-1-isopropoxy-1-(5-methylpyrimidin-2-yl)propane-2-sulfonamide and (1S,2S)-N-(4-(2,6-dimethoxyphenyl)-5-(trans-4-hydroxybicyclo[1.1.1]pentan-2-yl)-4H-1,2,4-triazol-3-yl)-1-isopropoxy-1-(5-methylpyrimidin-2-yl)propane-2-sulfonamide] | 190
9 | COc1ncnc(OC)c1-n1c(NS(=O)(=O)[C@@H](C)[C@H](OC)c2ncc(Cl)cn2)nnc1[C@H]1CC[C@@H](F)CC1 (single isomer, unassigned) [Example 176.0, (1R,2S)-1-(5-chloropyrimidin-2-yl)-N-(4-(4,6-dimethoxypyrimidin-5-yl)-5-((1s,4R)-4-fluorocyclohexyl)-4H-1,2,4-triazol-3-yl)-1-methoxypropane-2-sulfonamide or (1R,2S)-1-(5-chloropyrimidin-2-yl)-N-(4-(4,6-dimethoxypyrimidin-5-yl)-5-((1r,4S)-4-fluorocyclohexyl)-4H-1,2,4-triazol-3-yl)-1-methoxypropane-2-sulfonamide] | 17
